This note sets out measurements from patent publication US12503438B2, “Compounds for the treatment of kinase-dependent disorders” (Exelixis, Inc., priority 2019, dated 2025).

The structures appear in SMILES notation.

One assay concerns the target Met (Homo sapiens, UniProt P08581). As to the kind of experiment: Human Met kinase assay (33P-phosphoryl transfer radiometric, KinaseProfiler). Also noted: Human Met (residues R974-S1390 with A1209G and V1290L, 3.4 nM); purchased Eurofins Pharma Discovery Services UK Limited (KinaseProfiler service). As to conditions: biochemical activity; 10 μM ATP; read-out: c-Met IC50. How it is done:
Kinase activity and compound inhibition were investigated using the ^33P-Phosphoryl transfer radiometric kinase assay, performed using the KinaseProfiler™ service of Eurofins Pharma Discovery Services UK Limited. Dose-response experiments were performed using nine compound concentrations in a 96-well microtiter plate. For each assay, all compounds were prepared to a 50× final assay concentration (50 μM) in 100% DMSO, then diluted in a half-log series, with the final top concentration at 1 μM. This working stock of the compound was added to the assay well as the first component in the reaction, followed by the remaining components as detailed in the following assay protocols below. The positive control wells (100% kinase activity) contain all components of the reaction including 2% DMSO (control for solvent effects), except the compound of interest. Blank wells contain all components of the reaction, with the reference inhibitor, staurosporine. This reference compound was used to abolish kinase activity and generated the 0% kinase activity base-line. IC50 values were calculated by nonlinear regression analysis using the sigmoidal dose-response (variable slope) curve fit on XLFit version 5.3 (ID Business Solutions).
Human Met (residues R974-S1390 with A1209G and V1290L, 3.4 nM) was incubated with 8 mM MOPS pH 7.0, 0.2 mM EDTA, 250 μM KKKGQEEEYVFIE, 1 mM sodium orthovanadate, 5 mM […], 10 mM magnesium acetate, and 10 μM [γ-^33P-ATP]. The reaction was initiated by the addition of the Mg/ATP mix. After incubation for 40 minutes at room temperature, the reaction was stopped by the addition of phosphoric acid to a concentration of 0.5%. A reaction aliquot of 10 μL was then spotted onto a P30 filtermat and washed four times for 4 minutes in 0.425% phosphoric acid and once in methanol prior to drying and scintillation counting. Incorporated ^33P was measured using the Wallac Microbeta scintillation counter (Perkin Elmer).

In another assay the target is T1, Mer (Homo sapiens, UniProt Q12866).
T1 construct: host or cells: 293A cells (Thermo Fisher #R70507)
T1 sequence (Q12866 21-999): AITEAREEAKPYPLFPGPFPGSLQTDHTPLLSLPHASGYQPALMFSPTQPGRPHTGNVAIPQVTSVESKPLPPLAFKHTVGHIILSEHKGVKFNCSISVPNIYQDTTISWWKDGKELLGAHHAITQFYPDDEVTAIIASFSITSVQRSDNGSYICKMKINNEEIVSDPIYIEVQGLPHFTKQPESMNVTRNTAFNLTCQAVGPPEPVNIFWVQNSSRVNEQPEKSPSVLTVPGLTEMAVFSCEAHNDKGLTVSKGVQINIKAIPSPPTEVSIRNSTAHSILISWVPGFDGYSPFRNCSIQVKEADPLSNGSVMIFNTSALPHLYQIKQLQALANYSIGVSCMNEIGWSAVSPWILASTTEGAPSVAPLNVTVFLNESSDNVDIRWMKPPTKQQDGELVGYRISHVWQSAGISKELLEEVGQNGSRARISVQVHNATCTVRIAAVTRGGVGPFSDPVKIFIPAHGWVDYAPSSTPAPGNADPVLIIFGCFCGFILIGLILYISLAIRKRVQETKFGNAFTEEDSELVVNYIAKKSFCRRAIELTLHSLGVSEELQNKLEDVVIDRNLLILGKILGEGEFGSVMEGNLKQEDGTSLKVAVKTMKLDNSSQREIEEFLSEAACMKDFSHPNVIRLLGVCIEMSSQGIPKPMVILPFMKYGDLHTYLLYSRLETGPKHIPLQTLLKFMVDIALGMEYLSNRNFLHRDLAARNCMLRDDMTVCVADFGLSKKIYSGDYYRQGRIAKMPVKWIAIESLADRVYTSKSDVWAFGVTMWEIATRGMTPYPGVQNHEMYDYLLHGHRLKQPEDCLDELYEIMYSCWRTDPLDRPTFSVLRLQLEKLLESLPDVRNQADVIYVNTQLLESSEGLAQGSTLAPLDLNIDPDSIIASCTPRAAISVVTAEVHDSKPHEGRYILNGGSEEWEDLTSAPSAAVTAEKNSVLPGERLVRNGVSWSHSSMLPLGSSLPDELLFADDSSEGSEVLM
In words: Mer autophosphorylation ELISA in transient transfected 293A cells. As to conditions: cellular activity; MERTK-transfected 293A cells, phospho-Mer ELISA. The format is cell-based. In a few lines:
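293A cells transiently transfected with human MERTK DNA, then treated 1 h with 8-point compound dilutions in serum-free medium (0.3% DMSO). Phospho-Mer in lysates quantified by sandwich ELISA against phospho-Mer standard; normalised to DMSO (100%) and reference inhibitor (0%), IC50 from 4-parameter logistic fit.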
In general terms: ELISA stands for enzyme-linked immunosorbent assay.

A word on the IC50: it is the midpoint of a concentration-inhibition curve.

Chain of Met (P08581 974-1390): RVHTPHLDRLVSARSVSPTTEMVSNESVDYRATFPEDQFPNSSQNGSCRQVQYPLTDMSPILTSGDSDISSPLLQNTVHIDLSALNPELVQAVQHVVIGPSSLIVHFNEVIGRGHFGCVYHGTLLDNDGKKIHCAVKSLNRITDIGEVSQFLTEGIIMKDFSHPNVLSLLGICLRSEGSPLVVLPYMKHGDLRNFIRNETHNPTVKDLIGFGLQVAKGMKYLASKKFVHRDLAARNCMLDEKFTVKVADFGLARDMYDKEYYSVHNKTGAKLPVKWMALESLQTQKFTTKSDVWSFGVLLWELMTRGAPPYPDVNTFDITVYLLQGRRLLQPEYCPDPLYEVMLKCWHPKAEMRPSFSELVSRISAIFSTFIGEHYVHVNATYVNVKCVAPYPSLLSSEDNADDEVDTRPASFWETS

As to `O=C(Nc1ccc(F)cc1)C1(C(=O)Nc2ccc(Oc3ccnc4cc(-c5cn[nH]c5)ccc34)cc2)CC1` [Compound 67, 1-N′-(4-Fluorophenyl)-1-N-[4-[7-(1H-pyrazol-4-yl)quinolin-4-yl]oxyphenyl]cyclopropane-1,1-dicarboxamide], the IC50 at Met and against Mer was not above 10 nM each time.

`O=C(Nc1ccc(F)cc1)C1(C(=O)Nc2ccc(Oc3ccnc4cc(-c5cnn(C(F)(F)F)c5)ccc34)cc2)CC1` [Compound 12, 1-N′-(4-Fluorophenyl)-1-N-[4-[7-[1-(trifluoromethyl)pyrazol-4-yl]quinolin-4-yl]oxyphenyl]cyclopropane-1,1-dicarboxamide]: the values for the IC50 at Met and against Mer were 10 to 100 nM and 100 to 300 nM, respectively.

As for `CS(=O)(=O)n1cc(-c2ccc3c(Oc4ccc(NC(=O)C5(C(=O)Nc6ccc(F)cc6)CC5)cc4)ccnc3c2)cn1` [Compound 79, 1-N′-(4-Fluorophenyl)-1-N-[4-[7-(1-methylsulfonylpyrazol-4-yl)quinolin-4-yl]oxyphenyl]cyclopropane-1,1-dicarboxamide], the IC50 on Met was not above 10 nM; on Mer, 10 to 100 nM.

For the molecule `Cn1nccc1-c1ccc2c(Oc3ccc(NC(=O)C4(C(=O)Nc5ccc(F)cc5)CC4)cc3)ccnc2c1` [Compound 54, 1-N′-(4-Fluorophenyl)-1-N-[4-[7-(2-methylpyrazol-3-yl)quinolin-4-yl]oxyphenyl]cyclopropane-1,1-dicarboxamide], the IC50 on Met is not above 10 nM; on Mer, 10 to 100 nM.

Regarding `O=C(Nc1ccc(F)cc1)C1(C(=O)Nc2ccc(Oc3ccnc4cc(C5CCNC5)ccc34)cc2)CC1` (stereo not drawn) [Compound 83, 1-N′-(4-Fluorophenyl)-1-N-[4-(7-pyrrolidin-3-ylquinolin-4-yl)oxyphenyl]cyclopropane-1,1-dicarboxamide], the IC50 was not above 10 nM on Met and 100 to 300 nM against Mer.

As for `CC(C)(C)n1cc(-c2ccc3c(Oc4ccc(NC(=O)C5(C(=O)Nc6ccc(F)cc6)CC5)cc4)ccnc3c2)cn1` [Compound 23, 1-N-[4-[7-(1-tert-Butylpyrazol-4-yl)quinolin-4-yl]oxyphenyl]-1-N′-(4-fluorophenyl)cyclopropane-1,1-dicarboxamide], the IC50 on Met and against Mer was 10 to 100 nM each time.

Take `O=C(Nc1ccc(F)cc1)C1(C(=O)Nc2ccc(Oc3ccnc4cc(-c5nnco5)ccc34)cc2)CC1` [Compound 73, 1-N′-(4-Fluorophenyl)-1-N-[4-[7-(1,3,4-oxadiazol-2-yl)quinolin-4-yl]oxyphenyl]cyclopropane-1,1-dicarboxamide]: the IC50 on Met was not above 10 nM; against Mer, 10 to 100 nM.

`O=C(Nc1ccc(F)cc1)C1(C(=O)Nc2ccc(Oc3ccnc4cc(-c5ncc[nH]5)ccc34)cc2)CC1` [Compound 74, 1-N′-(4-Fluorophenyl)-1-N-[4-[7-(1H-imidazol-2-yl)quinolin-4-yl]oxyphenyl]cyclopropane-1,1-dicarboxamide]: the IC50 on Met is not above 10 nM; at Mer it was 10 to 100 nM.

For `Cn1ccc(-c2ccc3c(Oc4ccc(NC(=O)C5(C(=O)Nc6ccc(F)cc6)CC5)cc4)ccnc3c2)n1` [Compound 17, 1-N′-(4-Fluorophenyl)-1-N-[4-[7-(1-methylpyrazol-3-yl)quinolin-4-yl]oxyphenyl]cyclopropane-1,1-dicarboxamide], the IC50 is not above 10 nM at Met and 10 to 100 nM at Mer.

Regarding `O=C(Nc1ccc(F)cc1)C1(C(=O)Nc2ccc(Oc3ccnc4cc(-c5cnn(CC(F)(F)F)c5)ccc34)cc2)CC1` [Compound 16, 1-N′-(4-Fluorophenyl)-1-N-[4-[7-[1-(2,2,2-trifluoroethyl)pyrazol-4-yl]quinolin-4-yl]oxyphenyl]cyclopropane-1,1-dicarboxamide], the IC50 at Met and against Mer was 10 to 100 nM throughout.

As for `Cc1cc2c(Oc3ccc(NC(=O)C4(C(=O)Nc5ccc(F)cc5)CC4)cc3)ccnc2cc1-c1cnn(C)c1` [Compound 78, 1-N′-(4-Fluorophenyl)-1-N-[4-[6-methyl-7-(1-methylpyrazol-4-yl)quinolin-4-yl]oxyphenyl]cyclopropane-1,1-dicarboxamide], the results for the IC50 at Met and on Mer were not above 10 nM and 10 to 100 nM, respectively.

On to `O=C(Nc1ccc(F)cc1)C1(C(=O)Nc2ccc(Oc3ccnc4cc(-c5cnn(CCO)c5)ccc34)cc2)CC1` [Compound 18, 1-N′-(4-Fluorophenyl)-1-N-[4-[7-[1-(2-hydroxyethyl)pyrazol-4-yl]quinolin-4-yl]oxyphenyl]cyclopropane-1,1-dicarboxamide], for which the IC50 at Met and against Mer was not above 10 nM each time.

As to `COCCn1cc(-c2ccc3c(Oc4ccc(NC(=O)C5(C(=O)Nc6ccc(F)cc6)CC5)cc4)ccnc3c2)cn1` [Compound 10, 1-N′-(4-Fluorophenyl)-1-N-[4-[7-[1-(2-methoxyethyl)pyrazol-4-yl]quinolin-4-yl]oxyphenyl]cyclopropane-1,1-dicarboxamide], the results for the IC50 on Met and on Mer were 10 to 100 nM and not above 10 nM, respectively.

With `O=C(Nc1ccc(F)cc1)C1(C(=O)Nc2ccc(Oc3ccnc4cc(-c5cnn(CC(F)F)c5)ccc34)cc2)CC1` [Compound 15, 1-N-[4-[7-[1-(2,2-Difluoroethyl)pyrazol-4-yl]quinolin-4-yl]oxyphenyl]-1-N′-(4-fluorophenyl)cyclopropane-1,1-dicarboxamide], the IC50 at Met and against Mer was not above 10 nM each time.

With `O=C(Nc1ccc(F)cc1)C1(C(=O)Nc2ccc(Oc3ccnc4cc(-c5cnc[nH]5)ccc34)cc2)CC1` [Compound 72, 1-N′-(4-Fluorophenyl)-1-N-[4-[7-(1H-imidazol-5-yl)quinolin-4-yl]oxyphenyl]cyclopropane-1,1-dicarboxamide], the IC50 at Met and against Mer was not above 10 nM throughout.

For `Cn1ncc(-c2ccc3c(Oc4ccc(NC(=O)C5(C(=O)Nc6ccc(F)cc6)CC5)cc4)ccnc3c2)n1` [Compound 86, 1-N′-(4-Fluorophenyl)-1-N-[4-[7-(2-methyltriazol-4-yl)quinolin-4-yl]oxyphenyl]cyclopropane-1,1-dicarboxamide], the IC50 at Met is not above 10 nM; on Mer it was 10 to 100 nM.

Take `O=C(Nc1ccc(F)cc1)C1(C(=O)Nc2ccc(Oc3ccnc4cc(-c5ccccn5)ccc34)cc2)CC1` [Compound 85, 1-N′-(4-Fluorophenyl)-1-N-[4-(7-pyridin-2-ylquinolin-4-yl)oxyphenyl]cyclopropane-1,1-dicarboxamide]: the IC50 on Met and against Mer was 10 to 100 nM throughout.

Take `CC(=O)N1CCC(n2cc(-c3ccc4c(Oc5ccc(NC(=O)C6(C(=O)Nc7ccc(F)cc7)CC6)cc5)ccnc4c3)cn2)CC1` [Compound 62, 1-N-[4-[7-[1-(1-Acetylpiperidin-4-yl)pyrazol-4-yl]quinolin-4-yl]oxyphenyl]-1-N′-(4-fluorophenyl)cyclopropane-1,1-dicarboxamide]: the IC50 at Met and against Mer was not above 10 nM in each case.
